According to article PMC10826971, “Evaluating protein cross-linking as a therapeutic strategy to stabilize SOD1 variants in a mouse model of familial ALS” (PLOS Biology, 2024):
Entries after “also recorded” stand apart in the source; their conditions may differ.

Tests used:
human serum albumin = human serum albumin (Homo sapiens, UniProt P02768); type: in vitro ADME
[1] = tested on: wild-type SOD1, SOD1^A4V, SOD1^G93A, SOD1^H46R, and SOD1^G85R; experiment: Mass spectrometry assay for intact protein cross-linking in vitro; type: binding, human
Protocol: We employed a mass spectrometry (MS) assay for intact protein cross-linking. In this assay, any non-covalent (i.e., native) dimer is dissociated by a combination of acidic, organic media and MS source conditions.
Wild-type SOD1, SOD1^A4V, SOD1^G93A, SOD1^H46R, and SOD1^G85R stock solutions were diluted to 40 μm in 10 mM ammonium acetate (pH 7.4). […] Prior to infusion, samples were diluted to 1 μm in 50:50 acetonitrile:water, with 0.1% formic acid. During analysis, 32 scans were acquired in positive mode and averaged. Funnel 1 and skimmer 1 were kept around 150 V and 20 V, respectively, and funnel RF amplitude was held at 60.0 Vpp.

[2] = target: T1, EGFP-labeled SOD1 (wild-type, fALS variants, Cys111Ser, F50E/G51E) (Homo sapiens, UniProt P00441, F51E/G52E); experiment: Immunoblotting for SOD1-EGFP cross-linking in NSC-34 cells; type: cell-based, mouse NSC-34 cells; conditions: 20 μm S-XL6
T1 construct: expressed in transfected cells; host or cells: NSC-34 mouse neuroblastoma/motor neuron hybrid cells
T1 sequence (P00441 2-154 F51E/G52E): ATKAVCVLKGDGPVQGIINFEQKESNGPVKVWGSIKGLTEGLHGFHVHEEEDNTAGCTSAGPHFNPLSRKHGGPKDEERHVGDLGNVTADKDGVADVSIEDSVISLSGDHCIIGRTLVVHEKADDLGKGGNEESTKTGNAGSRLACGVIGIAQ
Protocol: (§1) Mouse neuroblastoma/motor neuron hybrid cells (NSC-34) were cultured and maintained as previously described. Briefly, NSC-34 cells were cultured in Dulbecco’s Modified Eagle’s Medium with F12 supplement (DMEM/F12, Invitrogen Australia) containing 10% (v/v) heat-inactivated fetal bovine serum (FBS, Bovogen Biologicals, Australia) and 2 mM L-Glutamine (Invitrogen, Australia). Cells were passaged using 0.25% trypsin, 0.02% EDTA (Invitrogen, Australia). Cells were maintained within humidified incubators at 37°C with 5% CO2.
(§2) To transfect NSC-34 cells, they were first plated out to 40% confluency in either 6-well or 12-well tissue culture-treated plates and cultured for 24 h. Following this, TransIT-X2 reagent (Mirus Bio, USA) was used according to the manufacturer’s instructions to transfect NSC-34’s (1 μg DNA per well for 12-well plates, 2.5 μg per well for a 6-well plate). Cells were then incubated for 8 h prior to replating for experiments into other plates or chambers.
(§3) Transfected NSC-34 cells were plated out into 12-well plates and left overnight. […] Cells were then harvested via aspiration and pelleted (300 × g). Lysis and immunoblots were carried out as previously described. Briefly, cell pellets were lysed in ice-cold lysis buffer containing protease inhibitors (Thermo Fisher, USA) and N-ethylmaleimide (NEM) at a final concentration of 1 mg/mL. Protein concentration was measured by DC assay (BioRad, Australia) and samples were denatured in SDS-sample buffer containing 40 mM NEM at 90°C for 5 min. Lysates were loaded into 26-lane stain-free gels (BioRad, Australia) and electrophoresed. Proteins were transferred to 0.2 μm PVDF membranes for 1 h at 4°C. Membranes were blocked in 5% skim milk in TBST for 1 h prior to addition to primary antibody which as a rabbit anti-GFP antibody (ab290, 1:5,000, Abcam USA) and incubated overnight at 4°C. Membranes were washed 3× and then incubated for 1 h at room temperature in secondary antibody (goat anti-rabbit HRP conjugate at 1:5,000 (catalog no.: P0448; Dako). Membranes were then washed 3× prior to developing with SuperSignal West Pico Plus substrate (Thermo Fisher Scientific).

[3] = tested on: EGFP-labeled SOD1 (wild-type, fALS variants, Cys111Ser, F50E/G51E); experiment: as above; type: cell-based, mouse NSC-34 cells
Protocol: as §1, §2, §3

[4] = target: T2, EGFP-labeled SOD1 (wild-type, fALS variants, Cys111Ser, F50E/G51E) (Homo sapiens, UniProt P00441, C112S); experiment: as above; type: cell-based, mouse NSC-34 cells; conditions: 20 μm S-XL6
T2 construct: expressed in transfected cells; host or cells: NSC-34 mouse neuroblastoma/motor neuron hybrid cells
T2 sequence (P00441 2-154 C112S): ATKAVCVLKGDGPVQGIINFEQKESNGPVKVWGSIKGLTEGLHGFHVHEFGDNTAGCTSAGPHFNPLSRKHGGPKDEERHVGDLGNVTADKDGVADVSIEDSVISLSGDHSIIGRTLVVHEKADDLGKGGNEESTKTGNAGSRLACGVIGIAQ
Protocol: as §1, §2, §3

[5] = tested on: alpha 1-acid glycoprotein; type: in vitro ADME
SOD1^G93A [6] = target: T3, SOD1^G93A (Homo sapiens, UniProt P00441, G94A); experiment: Pharmacodynamic profiling: cross-linked SOD1^G93A dimer in blood (RBC) by LC-MS; type: in vivo, mouse; design: Extraction of SOD1^G93A from red blood cell (RBC) protein was performed as previously described; tissue Jackson Laboratory 002726; host or cells: red blood cells of transgenic B6SJL-Tg(SOD1*G93A)1Gur/J mice; conditions: for % Dimer (cross-linked SOD1^G93A in blood): 10 mg/kg IV single dose
T3 sequence (P00441 2-154 G94A limits assumed): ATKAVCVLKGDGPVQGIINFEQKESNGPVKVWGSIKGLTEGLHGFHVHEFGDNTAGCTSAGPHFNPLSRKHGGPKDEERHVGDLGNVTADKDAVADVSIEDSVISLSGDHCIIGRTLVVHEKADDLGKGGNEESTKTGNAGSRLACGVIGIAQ

SOD1^G93A [7] = target: T3, SOD1^G93A; experiment: Small-angle x-ray solution scattering (SAXS); design: made in house; host or cells: EGy118ΔSOD1 yeast, YEp351 expression vector; conditions: GNOM; untreated over 200 Å
Protocol: SAXS data were collected at the G1 beamline at Cornell High Energy Synchrotron Source (CHESS). For each sample, 2 measurements were taken, one of the protein with buffer and one with buffer by itself. Solution scattering data were captured every second for 10 frames. The 10 frames of both buffer and protein were then averaged and the buffer was subtracted out to get the scattering for the protein. Samples were run in a 96-well plate and held at 4°C continuously. Data collection was in the scattering angle (q) range of 0.008 to 0.71 Å^-1 and processed using the software, RAW.
Control sample contained 5% MeOH (final conc. 2.5%). Samples were then incubated at 37°C for 6 h to ensure complete cross-linking. After incubation, excess compound was buffer exchanged out of each sample using a 10 kDa MWCO ultrafiltration device, and 320 μL is diluted to 15 mL into HEPES buffer, spun down to approximately 500 μL, and resuspended in another 15 mL of HEPES buffer. After the final spin, samples were removed and concentrated in a smaller ultrafiltration device and brought to approximately 70 μL final volume (4.7 μm). Samples were flash frozen and stored at –80°C prior to analysis.
The GNOM program was used to evaluate the pair distribution plot using an indirect Fourier transform. […]

human serum albumin, sequence (P02768 25-609): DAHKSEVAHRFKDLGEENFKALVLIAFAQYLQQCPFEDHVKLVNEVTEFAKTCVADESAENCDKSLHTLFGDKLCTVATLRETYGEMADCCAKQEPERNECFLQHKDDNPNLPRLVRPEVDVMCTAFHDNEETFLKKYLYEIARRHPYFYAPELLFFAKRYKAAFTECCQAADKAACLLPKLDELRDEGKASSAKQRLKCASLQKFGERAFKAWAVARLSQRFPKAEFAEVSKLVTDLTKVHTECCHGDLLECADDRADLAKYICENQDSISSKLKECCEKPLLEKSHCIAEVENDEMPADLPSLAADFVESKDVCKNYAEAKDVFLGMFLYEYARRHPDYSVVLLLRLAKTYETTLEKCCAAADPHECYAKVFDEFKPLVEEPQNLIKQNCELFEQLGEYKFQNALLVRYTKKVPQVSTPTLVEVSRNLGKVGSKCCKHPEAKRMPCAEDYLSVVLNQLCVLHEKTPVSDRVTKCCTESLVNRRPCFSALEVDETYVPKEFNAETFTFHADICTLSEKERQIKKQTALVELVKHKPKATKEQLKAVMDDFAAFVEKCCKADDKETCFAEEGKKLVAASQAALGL

[O-][S+]1CCCCS1 (centres unmarked) [S-XL6, 1,2-dithiane-1-oxide]
binding to purified protein (human serum albumin): not bound | dead-end modifications of SOD1 [1]: not observed | conversion of SOD1 monomer to cross-linked dimer ([1]; denaturing MS conditions): full conversion of monomer to dimer | binding to the constitutively monomeric variant (F50E/G51E) [2]: lack of binding | cross-linking yield compared to leading cyclic thiosulfinates (Comp 2–5) [3]: highest cross-linking yield; also recorded: most effective compound | off-product with EGFP-wild-type and EGFP-D90A SOD1 [3]: high-molecular weight species consistent with trimeric SOD1 | cross-linking of the Cys111Ser variant [4]: lack of cross-linking | binding to purified protein [5]: not bound | % Dimer (cross-linked SOD1^G93A in blood) (SOD1^G93A [6]; 0.5 h post dose): 38% | % Dimer (cross-linked SOD1^G93A in blood) (SOD1^G93A [6]; 1 h post dose): 63% | % Dimer (cross-linked SOD1^G93A in blood) (SOD1^G93A [6]; 2 h post dose): 55% | % Dimer (cross-linked SOD1^G93A in blood) (SOD1^G93A [6]; 4 h post dose): 53% | % Dimer (cross-linked SOD1^G93A in blood) (SOD1^G93A [6]; 8 h post dose): 51% | % Dimer (cross-linked SOD1^G93A in blood) (SOD1^G93A [6]; 12 h post dose): 42% | % Dimer (cross-linked SOD1^G93A in blood) (SOD1^G93A [6]; 24 h post dose): 26% | % Dimer (cross-linked SOD1^G93A in blood) (SOD1^G93A [6]; 48 h post dose): 20% | % Dimer (cross-linked SOD1^G93A in blood) (SOD1^G93A [6]; 72 h post dose): 16% | % Dimer (cross-linked SOD1^G93A in blood) (SOD1^G93A [6]; […] post dose): 6% | Target engagement in blood and brain (SOD1^G93A [6]; G93A fALS mouse): SOD1 dimer formation in G93A fALS mouse blood and brain | Dmax of SOD1^G93A with S-XL6 (SOD1^G93A [7]): approximately 79 Å
